# Assay results from US7008927B2, “Pralmorelin-containing nasal drop preparations” (Kaken Pharmaceutical Co., Ltd., priority 2000, dated 2006).
# Where a SMILES comes first, the peptide text is derived from it. [ ]: non-standard residue; d: D form. d2Nal = N[C@H](Cc1ccc2ccccc2c1)C(=O)O
# Tests used:
# [1] = In vivo absorption after intranasal administration to rats (plasma concentration, two-antibody competition method); conditions: Crj:CD (SD), rat; for Tmax: male rats; for AUC / Cmax / bioavailability: male
# Procedure: With an isotonic solution (in distilled water) of 5 w/v % D-mannitol or physiological saline used as a solvent, a solution of 0.1 w/v % pralmorelin dihydrochloride was prepared and administered to male rats (7-week old, Crj:CD (SD) strain, N=3) in an amount of 50 μg/kg.
# With the rats fixed supine under an unanesthetized condition, the pralmorelin solution was administered into one nostril of each rat in an amount of 50 μg/kg with a micropipette. The rats were not anesthetized for two reasons: actual drug administration is effected without anesthesia; the effects anesthetization would have on drug absorption have not been elucidated.
# The concentration of an unchanged substance in plasma was measured in accordance with the two-antibody competition method of Kitagawa et al. summarized below [J. Assoc. Off. Anal. Chem., Vol. 68, No. 4, pp. 661–664 (1985) and J. Immunological Methods, 72, pp. 109–118 (1984)].
# Anti-rabbit IgG goat IgG (Jackson Immuno Research) as the second antibody was adsorbed on an ELISA 96-well microplate (GREINER). Then, anti-pralmorelin dihydrochloride rabbit serum was adsorbed on the same microplate; the serum was the first antibody and had been obtained by subcutaneous injection of rabbits with an immunogen having pralmorelin dihydrochloride bound to bovine serum albumin (Sigma) by means of water-soluble carbodiimide (Nakarai Tesk).
# Pralmorelin dihydrochloride contained in a sample was allowed to compete for pralmorelin labeled β-galactosidase that had been crosslinked with crosslinker N-(m-maleimidebenzoyloxy)succinimide (Nakaral Tesk); then, the β-galactosidase bound to the first antibody was reacted with 4-methylumbelliferyl-β-D-galactopyranoside; thereafter, the enzymatic activity of the β-galactosidase bound to the first antibody was measured at an excitation wavelength of 370 nm and a fluorescence wavelength of 460 nm.
# From the measured values for the enzymatic activity of the β-galactosidase, the maximum plasma drug concentration (Cmax) of pralmorelin dihydrochloride, the area under the plasma drug concentration vs time curve (AUC) and the bioavailability (the ratio of AUC obtained by intranasal administration to AUC obtained by intravenous administration) were obtained.
# Two kinds of preparation for intranasal administration, one consisting of pralmorelin dihydrochloride and distilled water and the other further containing D-mannitol at varying concentrations, were evaluated for their effects on in vivo absorption of pralmorelin dihydrochloride. With four kinds of solvent, distilled water, 2.5 w/v % D-mannitol solution (osmolarity ratio, 0.5), 5 w/v % D-mannitol solution (osmolarity ratio, 1), 10 w/v % D-mannitol solution (osmolarity ratio, 2), solutions of 0.4 w/v % pralmorelin dihydrochloride were prepared and administered in an amount of 50 μg/kg to male rats as in Example 1.
# With an aqueous solution of 0.005 w/v % benzalkonium chloride used as a base, pralmorelin preparations for intranasal administration were made at three concentrations, 0.1 w/v %, 0.3 w/v % and 1.0 w/v %, of pralmorelin dihydrochloride. Each preparation was dripped into the right nostril of 5-week old male Crj:CD (SD) rats (N=3). The dose of administration was 0.1 mg/kg, 0.3 mg/kg and 1.0 mg/kg for the respective preparations, which were all administered in a volume of 0.1 ml/kg.
# [2] = Saturated solubility in physiological saline; type: physicochemical; conditions: 25° C., as dihydrochloride
# Procedure: To be more specific, pralmorelin has low saturated solubility in physiological saline (0.15 w/v % at 25° C. when it is dihydrochloride) and at higher concentrations, pralmorelin becomes insoluble with the lapse of time and a problem occurs in terms of storage stability, thus making it difficult to formulate pralmorelin pharmaceutically using physiological saline. Even at concentrations lower than its saturated solubility, pralmorelin has low in vivo absorption and needs frequent administration.
# [3] = inhaled or intranasal, 50 ug/kg, intranasal 50 μg/kg, 0.1 w/v % solution in 5 w/v % D-mannitol
# [4] = inhaled or intranasal, 50 ug/kg, intranasal 50 μg/kg, 0.1 w/v % solution in physiological saline
# [5] = inhaled or intranasal, 50 ug/kg, intranasal 50 μg/kg, 0.4 w/v % solution in 2.5 w/v % D-mannitol (osmolarity ratio 0.5)
# [6] = inhaled or intranasal, 50 ug/kg, intranasal 50 μg/kg, 0.4 w/v % solution in 5 w/v % D-mannitol (osmolarity ratio 1)
# [7] = inhaled or intranasal, 50 ug/kg, intranasal 50 μg/kg, 0.4 w/v % solution in 10 w/v % D-mannitol (osmolarity ratio 2)
# [8] = inhaled or intranasal, 50 ug/kg, intranasal 50 μg/kg, 0.4 w/v % solution in distilled water
# [9] = inhaled or intranasal, 0.1 mg/kg, intranasal 0.1 mg/kg, 0.1 w/v % in aqueous 0.005 w/v % benzalkonium chloride, 0.1 ml/kg
# [10] = inhaled or intranasal, 0.3 mg/kg, intranasal 0.3 mg/kg, 0.3 w/v % in aqueous 0.005 w/v % benzalkonium chloride, 0.1 ml/kg
# [11] = inhaled or intranasal, 1 mg/kg, intranasal 1.0 mg/kg, 1.0 w/v % in aqueous 0.005 w/v % benzalkonium chloride, 0.1 ml/kg
compound,measurement,setting,value
"C[C@H](NC(=O)[C@@H](Cc1ccc2ccccc2c1)NC(=O)[C@@H](C)N)C(=O)N[C@@H](Cc1c[nH]c2ccccc12)C(=O)N[C@H](Cc1ccccc1)C(=O)N[C@@H](CCCCN)C(N)=O.Cl.Cl [pralmorelin dihydrochloride, D-alanyl-3-(naphthalen-2-yl)-D-alanyl-L-alanyl-L-tryptophyl-D-phenylalanyl-L-lysinamide dihydrochloride] (H-[dA][d2Nal]AW[dF]K-NH2)",Tmax,"[1]; inhaled or intranasal, intranasal 0.1 mg/kg, 0.1 w/v % in aqueous 0.005 w/v % benzalkonium chloride, 0.1 ml/kg",10.2 min
same,Tmax,"[1]; inhaled or intranasal, intranasal 0.3 mg/kg, 0.3 w/v % in aqueous 0.005 w/v % benzalkonium chloride, 0.1 ml/kg",10.2 min
same,Tmax,"[1]; inhaled or intranasal, intranasal 1.0 mg/kg, 1.0 w/v % in aqueous 0.005 w/v % benzalkonium chloride, 0.1 ml/kg",10.2 min
same,AUC,[1]; [3],2.71 ng·h/mL
same,Cmax,[1]; [3],2.37 ng/mL
same,AUC,[1]; [4],1.98 ng·h/mL
same,Cmax,[1]; [4],0.7 ng/mL
same,Cmax,[1]; [5],55.8 ng/mL
same,bioavailability,[1]; [5],22.1%
same,Cmax,[1]; [6],49.2 ng/mL
same,bioavailability,[1]; [6],19%
same,Cmax,[1]; [7],21.7 ng/mL
same,bioavailability,[1]; [7],9%
same,Cmax,[1]; [8],60.7 ng/mL
same,bioavailability,[1]; [8],26.2%
same,AUC,[1]; [9],14.5 ng·h/mL
same,Cmax,[1]; [9],18 ng/mL
same,AUC,[1]; [10],48.1 ng·h/mL
same,Cmax,[1]; [10],72.8 ng/mL
same,AUC,[1]; [11],250 ng·h/mL
same,Cmax,[1]; [11],502 ng/mL
same,bioavailability,"[1]; other: intranasal, 50 ug/kg, intranasal 50 μg/kg, 0.1 w/v % solution in 5 w/v % D-mannitol, AUC intranasal / AUC intravenous",4.22%
same,bioavailability,"[1]; other: intranasal, 50 ug/kg, intranasal 50 μg/kg, 0.1 w/v % solution in physiological saline, AUC intranasal / AUC intravenous",3.08%
same,saturated solubility in physiological saline,[2],0.15 w/v %
